# Results from US10065973B2, “Substituted aminothiazolopyrimidinedione for the treatment and prophylaxis of virus infection” (Hoffmann-La Roche Inc., priority 2016, dated 2018).
# Tested on: human hepatocytes
# Assay: Metabolic conversion of prodrugs to active form in human hepatocytes
# Type: in vitro ADME
# Conditions: active metabolites Example 10-A and penciclovir, respectively
# Description: Metabolism of Prodrugs: Compounds of Formula (II) A study was undertaken to evaluate the metabolic conversion of prodrugs, compounds of formula (II) or (IIa), to compounds of formula (I) or (Ia) of the present invention. The produgs, compounds of formula (II) or (IIa), can be metabolized to the active compound of formula (I) or (Ia) and other compounds of the invention in the body if they are served as prodrugs. Hepatocytes are often used to assess the degree of metabolic conversion of prodrugs in the body of animal or human. A study was undertaken to evaluate the metabolic conversion of prodrug Example 21, Example 22, Example 23, Example 24, Example 25 and Example 26, to the corresponding active form, Example 10-A, in the presence of human hepatocytes. The formation of active form, Example 10-A, was monitored in the study. For comparison, the metabolic conversion of famciclovir to penciclovir was also assessed. Cryopreserved hepatocytes plating medium (Cat.#: PY-HMD-03) was purchased from RILD Research Institute for Liver Diseases (Shanghai) Co. Ltd. Cryopreserved human hepatocyte (Cat.#: X008005, Lot#:VRR) was purchased from BioreclamationIVT (Baltimore, Md.). The stock hepatocyte suspension was prepared from cryopreserved hepatocytes in plating medium at the concentration of 1.8×10^6 cells/mL. Compounds were dissolved in DMSO to make 10 mM stock solutions. 10 μL of the stock solution was diluted to 990 μL plating medium to get a 100 μM working solution. Reaction suspensions were prepared in 24-well cell culture plate by mixing 200 μL of hepatocytes suspension (human) and 200 μL of working solution. The final incubation contained 0.9×10^6 cells/mL and 50 μM compound. The above mixtures were incubated at 37° C. in a humidified 5% CO2 atmosphere, with a 900 rpm shaking. After 180 min of incubation, 200 μL of the incubation mixture was transferred to 1.5 mL tube and quenched with 400 μL stop solution (ice-cold acetonitrile with 0.2 μM Tolbutamide as internal standard). The samples were centrifuged at 14000 rpm for 10 minutes and the resultant supernatants were subjected to LC-MS/MS analysis. The calibration curves were prepared in the following way. To a 200 μL of cell suspension (cell density of 1.8 million cells/mL), 198 μL of hepatocyte plating medium and 2 μL of the appropriate concentration of the compound in DMSO were added. Samples were mixed thoroughly and 200 μL of the mixture was transferred to 400 μL of the stop solution (see above). The standard curve range is from 1 μM to 25 μM. The compounds were quantified on an API5500 […] instrument in the ESI-Positive MRM mode.
row,SMILES,metabolic conversion to active metabolite in human hepatocytes
1,"CC[C@H](O)[C@@H]1C[C@@H]([C@@H](C)OC(C)=O)[C@H](n2c(=O)sc3cnc(N)nc32)O1 [Example 21, [(1R)-1-[(2R,3S,5S)-2-(5-Amino-2-oxo-thiazolo[4,5-d]pyrimidin-3-yl)-5-[(1S)-1-hydroxypropyl]tetrahydrofuran-3-yl]ethyl] acetate]",metabolized to yield the corresponding active metabolites
2,"CC[C@H](O)[C@@H]1C[C@@H]([C@@H](C)OC(=O)C(C)(C)C)[C@H](n2c(=O)sc3cnc(N)nc32)O1 [Example 24, [(1R)-1-[(2R,3S,5S)-2-(5-Amino-2-oxo-thiazolo[4,5-d]pyrimidin-3-yl)-5-[(1S)-1-hydroxypropyl]tetrahydrofuran-3-yl]ethyl] 2,2-dimethylpropanoate]",metabolized to yield the corresponding active metabolites
3,"CC(=O)OCC(CCn1cnc2cnc(N)nc21)COC(C)=O [Famciclovir, famciclovir, reference compound]",metabolized to yield the corresponding active metabolites
4,"CC[C@H](OC(C)=O)[C@@H]1C[C@@H]([C@@H](C)O)[C@H](n2c(=O)sc3cnc(N)nc32)O1 [Example 22, [(1S)-1-[(2S,4S,5R)-5-(5-Amino-2-oxo-thiazolo[4,5-d]pyrimidin-3-yl)-4-[(1R)-1-hydroxyethyl]tetrahydrofuran-2-yl]propyl] acetate]",metabolized to yield the corresponding active metabolites
5,"CC[C@H](O)[C@@H]1C[C@@H]([C@@H](C)OC(=O)CC(C)C)[C@H](n2c(=O)sc3cnc(N)nc32)O1 [Example 25, [(1R)-1-[(2R,3S,5S)-2-(5-Amino-2-oxo-thiazolo[4,5-d]pyrimidin-3-yl)-5-[(1S)-1-hydroxypropyl]tetrahydrofuran-3-yl]ethyl] 3-methylbutanoate]",metabolized to yield the corresponding active metabolites
6,"CC[C@H](O)[C@@H]1C[C@@H]([C@@H](C)OC(=O)C(C)C)[C@H](n2c(=O)sc3cnc(N)nc32)O1 [Example 23, [(1R)-1-[(2R,3S,5S)-2-(5-Amino-2-oxo-thiazolo[4,5-d]pyrimidin-3-yl)-5-[(1S)-1-hydroxypropyl]tetrahydrofuran-3-yl]ethyl] 2-methylpropanoate]",metabolized to yield the corresponding active metabolites
7,"CCOC(=O)O[C@H](C)[C@@H]1C[C@@H]([C@@H](O)CC)O[C@H]1n1c(=O)sc2cnc(N)nc21 [Example 26, [(1R)-1-[(2R,3S,5S)-2-(5-Amino-2-oxo-thiazolo[4,5-d]pyrimidin-3-yl)-5-[(1S)-1-hydroxypropyl]tetrahydrofuran-3-yl]ethyl] ethyl carbonate]",metabolized to yield the corresponding active metabolites
